Experimental data: patent publication EP3598902A1, “VITAMIN B2 AND ITS USE” (Société des Produits Nestlé S.A., priority 2014, dated 2016)

Test system: L6 differentiated muscle cells
Assay: glucose uptake (radiolabelled 2-deoxy-D-[1,2 3H] glucose) in differentiated muscle cells, absence of insulin
Type: cell-based
Conditions: ingredient G 1 µM, ingredient K 10 nM, versus control or basal condition
Protocol: Ingredient G refers to vitamin B2, ingredient k refers to 1,25-dihydroxyvitamin D3, and ingredient J refers to zinc chloride.
Ingredient G was tested at 1 µM. Ingredient K was tested at 10 nM, and ingredient J was tested at 20 µM.
Each ingredient was tested in triplicate.

## Cc1cc2nc3c(=O)[nH]c(=O)nc-3n(C[C@H](O)[C@H](O)[C@H](O)CO)c2cc1C [ingredient G, vitamin B2]
Long term incubation (24 hrs)
  glucose uptake: increases in glucose uptake were observed
Short term incubation (2 hrs), ingredient J 20 µM
  glucose uptake: increases in glucose uptake were observed
